US11980631B2, “β-lactamase inhibitors” (priority 2017, dated 2024)
“Also recorded” adds a separate entry of the source. Where two headings read alike, the source gives them in different places.

Legend:
[1] = system: S. maltophilia; assay: microbe, parasite or virus in culture; type: cell-based, Stenotrophomonas maltophilia; settings: for MIC: Stenotrophomonas maltophilia; for MIC / MIC of the β-lactam alone (−): no inhibitor; for MIC of aztreonam in the presence of the β-lactamase inhibitor / MIC of ceftazidime in the presence of the β-lactamase inhibitor / MIC of meropenem in the presence of the β-lactamase inhibitor / ability to potentiate β-lactams / reverse resistance (in words): inhibitor at 2 mg/L; for ability to potentiate β-lactams / reverse resistance (in words): β-lactam and strain named in the value
Procedure: S. maltophilia clinical isolates were K279a, a well characterised isolate from Bristol, UK, or were obtained from the SENTRY antimicrobial resistance survey, as previously reported. […] All growth media were from Oxoid. Chemicals were from Sigma, unless otherwise stated.
Susceptibility to β-lactams in bacterial isolates was determined using the CLSI microtitre minimum inhibitory concentration (MIC) methodology with Muller-Hinton Broth using 96 well plates (Corning, Costar). The MIC was determined as the lowest concentration of β-lactam required to entirely suppress growth. Inhibitor concentrations were kept constant at 2 mg/L or 10 mg/L in all assays. Interpretation of susceptibility/resistance was by reference to CLSI clinical breakpoints for S. maltophilia (ceftazidime) and for Pseudomonas aeruginosa (for aztreonam and meropenem, since no S. maltophilia breakpoints are available).

[2] = target: L2 (class A ESBL) (Stenotrophomonas maltophilia (Pseudomonas maltophilia) (Xanthomonas maltophilia), UniProt P96465); assay: Steady-state hydrolysis of β-lactams by purified L2; type: biochemical, S. maltophilia
Excerpt: (§1) As a prelude to investigation the effects of β-lactamase inhibitors, the hydrolysis of a range of candidate β-lactams in vitro by purified L1 (class B3 MBL) and L2 (class A ESBL) under steady state conditions were investigated.

[3] = target: L1 (class B3 MBL) (Stenotrophomonas maltophilia (Pseudomonas maltophilia) (Xanthomonas maltophilia), UniProt P52700); assay: Steady-state hydrolysis of β-lactams by purified L1; type: biochemical, S. maltophilia
Excerpt: as §1

[4] = target: BlaC (Mycobacterium tuberculosis (strain ATCC 25618 / H37Rv), UniProt P9WKD3); assay: BlaC inhibition assay (FC5 hydrolysis, fluorescence); type: biochemical
Procedure: Recombinant BlaC, with an N-terminal His-tag, was produced in E. coli BL21(DE3) cells using auto-induction medium supplemented with 50 μg mL^−1 ampicillin. Cells were grown for four hours at 37° C. before cooling to 18° C. and continuing growth overnight. Cells were harvested by centrifugation (10 min, 10000 g).
FC5 was stored as a 2.5 mM solution in assay buffer supplemented with 10% (v/v) DMSO. Fluorescence measurements were made using a PHERAstar multi-mode plate reader (BMG Labtech). All assays were carried out at 25° C. Fluorescence assays were carried out using black 96 well format half area clear® plates (Greiner Bio-One) with a final assay volume of 100 μL. FC5 hydrolysis was followed by fluorescence (λex=380 nm, λem=460 nm) corresponding to the release of the umbelliferone fluorophore. The optimum concentration of enzyme for steady-state measurements was determined by examining the rate of substrate hydrolysis at varied concentrations of enzyme, with the concentration at which the initial rate remained constant for 5-10 min being selected as an appropriate enzyme concentration. Initial rates of substrate hydrolysis were determined at varying substrate concentrations. Steady-state kinetic parameters were determined by fitting of initial rates to the Michaelis-Menten equation using GraphPad Prism 5 software.
Inhibition assays were performed by monitoring the initial rate of FC5 hydrolysis via fluorescence at a range of inhibitor concentrations. Inhibitors were stored either as solids or as 100 mM stock solutions in DMSO, these were diluted to appropriate concentrations in the assay buffer. Typically inhibition assays were carried out using black 384 well format pclear® plates (Griener Bio-One) with a final assay volume of 25 μL. Enzyme concentrations were chosen to give a linear rate of FC5 hydrolysis over the first 5 min of the assay time with an FC5 concentration of 5 μM. Components were added in the following order and volumes:
The enzyme was incubated with the inhibitor for 10 min prior to initiation of the reaction by the addition of the substrate. The residual activities were calculated using the following formula:
[formula] IC50 values were calculated by fitting of residual residual activity curves using GraphPad Prism 5 software.

[5] = system: L1 β-lactamase production in S. maltophilia K279a; assay: L1 β-lactamase induction by β-lactamase inhibitors (meropenem hydrolysis in cell extracts); type: cell-based; settings: 50 μg.mL^−1 inducer
Procedure: L1 activity was measured from the cell extracts in a 96-well plate reader by determining meropenem hydrolysis (100 μM) at λ=300 nm. Protein concentration was determined by using BioRad protein assay dye reagent. Specific activity was calculated by using the extinction coefficient of 9600 AU/M/cm and a pathlength correction for the microplate ([…]). Data presented are means +/−SEM, n=3.
Cultures were grown overnight using nutrient broth and used to inoculate (1:100 dilution) 10 ml nutrient broth cultures in sealed 30 ml universal bottles. Cultures were incubated for 2 h with shaking at 37° C. before test inducers were added, or not, and culture was continued for 2 h. Cells were pelleted by centrifugation (4,000×g, 10 min) and pellets treated with 100 μL of BugBuster (Ambion), pipetting up and down a few times before rocking for 10 min at room temperature. […] Protein concentration was determined using the BioRad protein assay reagent concentrate according to the manufacturer's instructions. L1 β-lactamase activity was determined using an Omega Fluostar (BMG Biotech) using meropenem as substrate in half-area 96 well UV-translucent plates (Greiner UV-Star. Bio-one) with 200 μl of 100 μM meropenem solution in assay buffer (60 mM Na2HPO4.7H2O pH 7.0, 40 mM NaH2PO4.H2O, 10 mM KCI, 1 mM MgSO4.7H2O, 100 μM ZnCl2) plus 10 μL of cell extract. […]

[6] = target: L2 (Stenotrophomonas maltophilia (Pseudomonas maltophilia) (Xanthomonas maltophilia), UniProt P96465); assay: Inhibition of purified L2, fluorogenic substrate FC5 as reporter
Procedure: Steady state kinetic data were analysed by curve fitting to the Michaeilis-Menten equation using Prism software.

[7] = IC50, purified L2, FC5 substrate

L2, sequence (P96465 36-303 limits assumed): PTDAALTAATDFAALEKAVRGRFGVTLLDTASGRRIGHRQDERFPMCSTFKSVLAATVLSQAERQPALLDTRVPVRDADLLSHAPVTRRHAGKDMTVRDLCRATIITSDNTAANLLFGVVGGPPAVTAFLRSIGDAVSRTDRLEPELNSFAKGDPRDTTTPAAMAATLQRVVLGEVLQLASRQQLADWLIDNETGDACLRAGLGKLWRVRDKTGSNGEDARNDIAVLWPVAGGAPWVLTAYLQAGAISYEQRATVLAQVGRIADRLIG
L2 (class A ESBL), sequence (P96465 36-303 limits assumed): as above
BlaC, sequence (P9WKD3 35-307 limits assumed): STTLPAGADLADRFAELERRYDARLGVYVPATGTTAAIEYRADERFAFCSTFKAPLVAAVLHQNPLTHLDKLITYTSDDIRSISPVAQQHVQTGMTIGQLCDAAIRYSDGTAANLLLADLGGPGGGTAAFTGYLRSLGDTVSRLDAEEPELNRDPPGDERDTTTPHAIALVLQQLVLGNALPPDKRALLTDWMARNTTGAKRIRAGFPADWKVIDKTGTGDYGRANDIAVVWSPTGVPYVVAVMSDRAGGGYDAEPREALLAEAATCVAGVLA
L1 (class B3 MBL), sequence (P52700 whole entry, looked up): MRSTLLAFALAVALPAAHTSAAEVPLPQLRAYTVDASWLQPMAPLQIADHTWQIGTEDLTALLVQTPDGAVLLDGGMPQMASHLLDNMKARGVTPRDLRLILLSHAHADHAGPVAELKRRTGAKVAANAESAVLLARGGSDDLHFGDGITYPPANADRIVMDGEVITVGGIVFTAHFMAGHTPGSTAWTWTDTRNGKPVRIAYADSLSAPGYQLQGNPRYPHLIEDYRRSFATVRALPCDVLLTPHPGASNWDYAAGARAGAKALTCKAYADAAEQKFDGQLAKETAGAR

## C[C@H]1[C@H](NC(=O)/C(=N\OC(C)(C)C(=O)O)c2csc(N)n2)C(=O)N1S(=O)(=O)O [Aztreonam]
[1]; read-out: MIC of the β-lactam alone (−), CI-20
  MIC: 128 mg/L
[1]; read-out: MIC of the β-lactam alone (−), CI-29
  MIC: 128 mg/L
[1]; read-out: MIC of the β-lactam alone (−), CI-31
  MIC: 256 mg/L
[1]; read-out: MIC of the β-lactam alone (−), K279a
  MIC: 128 mg/L
[1]; read-out: MIC of the β-lactam alone (−), K AMI 32
  MIC: 128 mg/L
[1]; read-out: MIC of the β-lactam alone (−), K CAZ 10
  MIC: 256 mg/L
[1]; read-out: MIC of the β-lactam alone (−), K MOX 8
  MIC: 128 mg/L

## CC(C)(O/N=C(\C(=O)N[C@@H]1C(=O)N2C(C(=O)[O-])=C(C[n+]3ccccc3)CS[C@H]12)c1csc(N)n1)C(=O)O [Ceftazidime]
[2]
  Km: 548 µM
  kcat: 1.88 s⁻¹
  kcat/KM: 3.4 (μM^−1 · s^−1) × 10^−3
[3]
  Km: 260 µM
  kcat: 1.67 s⁻¹
  kcat/KM: 6.4 (μM^−1 · s^−1) × 10^−3
[1]; CI-20
  MIC of the β-lactam alone (−): 16 mg/L
[1]; CI-29
  MIC of the β-lactam alone (−): 8 mg/L
[1]; CI-31
  MIC of the β-lactam alone (−): 256 mg/L
[1]; K279a
  MIC of the β-lactam alone (−): 4 mg/L
[1]; K AMI 32
  MIC of the β-lactam alone (−): 2 mg/L
[1]; K CAZ 10
  MIC of the β-lactam alone (−): 64 mg/L
[1]; K MOX 8
  MIC of the β-lactam alone (−): 4 mg/L

## C[C@]1(Cn2ccnn2)[C@H](C(=O)O)N2C(=O)C[C@H]2S1(=O)=O [Tazobactam]
[4]; pre-incubation time 0 min
  IC50: 6.46 µM
[4]; pre-incubation time 10 min
  IC50: 2.75 µM
[4]; pre-incubation time 60 min
  IC50: 3.55 µM

## O=C(O)[C@H]1/C(=C/CO)O[C@@H]2CC(=O)N21 [Clavulanic acid]
[1]; CI-20
  MIC of aztreonam in the presence of the β-lactamase inhibitor: 4 mg/L
  MIC of ceftazidime in the presence of the β-lactamase inhibitor: 16 mg/L
  MIC of meropenem in the presence of the β-lactamase inhibitor: 32 mg/L
[1]; CI-29
  MIC of aztreonam in the presence of the β-lactamase inhibitor: 1 mg/L
  MIC of ceftazidime in the presence of the β-lactamase inhibitor: 4 mg/L
  MIC of meropenem in the presence of the β-lactamase inhibitor: 16 mg/L
[1]; CI-31
  MIC of aztreonam in the presence of the β-lactamase inhibitor: 2 mg/L
  MIC of ceftazidime in the presence of the β-lactamase inhibitor: 128 mg/L
  MIC of meropenem in the presence of the β-lactamase inhibitor: 256 mg/L
[1]; K279a
  MIC of aztreonam in the presence of the β-lactamase inhibitor: 1 mg/L
  MIC of ceftazidime in the presence of the β-lactamase inhibitor: 4 mg/L
  MIC of meropenem in the presence of the β-lactamase inhibitor: 32 mg/L
[1]; K AMI 32
  MIC of aztreonam in the presence of the β-lactamase inhibitor: 0.5 mg/L
  MIC of ceftazidime in the presence of the β-lactamase inhibitor: 1 mg/L
  MIC of meropenem in the presence of the β-lactamase inhibitor: 8 mg/L
[1]; K CAZ 10
  MIC of aztreonam in the presence of the β-lactamase inhibitor: 0.5 mg/L
  MIC of ceftazidime in the presence of the β-lactamase inhibitor: 8 mg/L
  MIC of meropenem in the presence of the β-lactamase inhibitor: 8 mg/L
[1]; K MOX 8
  MIC of aztreonam in the presence of the β-lactamase inhibitor: 0.25 mg/L
  MIC of ceftazidime in the presence of the β-lactamase inhibitor: 1 mg/L
  MIC of meropenem in the presence of the β-lactamase inhibitor: 8 mg/L
[1]
  ability to potentiate β-lactams / reverse resistance (in words): does not reduce the MIC of ceftazidime against S. maltophilia K279a; also recorded: reduces the aztreonam MIC against K279a
[5]
  induction of L1 production (in words): induced L1 production
[6]; [7]
  IC50: 0.0223 µM
[6]; pIC50, purified L2, FC5 substrate
  IC50: 0.0389 µM

## C[C@@H](O)[C@H]1C(=O)N2C(C(=O)O)=C([C@H]3CCCO3)S[C@H]12 [Faropenem]
[4]; pre-incubation time 0 min
  IC50: 3.72 µM
[4]; pre-incubation time 10 min
  IC50: 2.51 µM
[4]; pre-incubation time 60 min
  IC50: 3.55 µM

## NC(=O)[C@@H]1CC[C@@H]2CN1C(=O)N2OS(=O)(=O)O [Avibactam]
[1]; CI-20
  MIC of aztreonam in the presence of the β-lactamase inhibitor: 2 mg/L
  MIC of ceftazidime in the presence of the β-lactamase inhibitor: 4 mg/L
  MIC of meropenem in the presence of the β-lactamase inhibitor: 64 mg/L
[1]; CI-29
  MIC of aztreonam in the presence of the β-lactamase inhibitor: 1 mg/L
  MIC of ceftazidime in the presence of the β-lactamase inhibitor: 1 mg/L
  MIC of meropenem in the presence of the β-lactamase inhibitor: 32 mg/L
[1]; CI-31
  MIC of aztreonam in the presence of the β-lactamase inhibitor: ≤ 4 mg/L
  MIC of ceftazidime in the presence of the β-lactamase inhibitor: 128 mg/L
  MIC of meropenem in the presence of the β-lactamase inhibitor: 256 mg/L
[1]; CI-31, listed as AVI
  MIC of aztreonam in the presence of the β-lactamase inhibitor: 4 mg/L
[1]; K279a
  MIC of aztreonam in the presence of the β-lactamase inhibitor: 1 mg/L
  MIC of ceftazidime in the presence of the β-lactamase inhibitor: 1 mg/L
  MIC of meropenem in the presence of the β-lactamase inhibitor: 16 mg/L
[1]; K AMI 32
  MIC of aztreonam in the presence of the β-lactamase inhibitor: 0.5 mg/L
  MIC of ceftazidime in the presence of the β-lactamase inhibitor: 0.5 mg/L
  MIC of meropenem in the presence of the β-lactamase inhibitor: 16 mg/L
[1]; K CAZ 10
  MIC of aztreonam in the presence of the β-lactamase inhibitor: 1 mg/L
  MIC of ceftazidime in the presence of the β-lactamase inhibitor: 8 mg/L
  MIC of meropenem in the presence of the β-lactamase inhibitor: 64 mg/L
[1]; K MOX 8
  MIC of aztreonam in the presence of the β-lactamase inhibitor: 0.5 mg/L
  MIC of ceftazidime in the presence of the β-lactamase inhibitor: 0.5 mg/L
  MIC of meropenem in the presence of the β-lactamase inhibitor: 16 mg/L
[1]
  ability to potentiate β-lactams / reverse resistance (in words): reduce ceftazidime MICs against K279a
[5]
  induction of L1 production (in words): neither avibactam nor 2 induces L1 to any measurable extent
[6]; [7]
  IC50: 0.0144 µM

## C[C@@H](O)[C@H]1C(=O)N2C(C(=O)O)=C(SCCN=CN)C[C@H]12 [Imipenem]
[4]; pre-incubation time 0 min
  pIC50: 5.59 ± 0.01
[4]; pre-incubation time 10 min
  pIC50: 6.09 ± 0.02
[4]; pre-incubation time 60 min
  pIC50: 6.45 ± 0.05

## C[C@@H](O)[C@H]1C(=O)N2C(C(=O)O)=C(S[C@@H]3CN[C@H](C(=O)N(C)C)C3)[C@H](C)[C@H]12 [Meropenem]
[2]
  Km: 28.8 µM
  kcat: 0.028 s⁻¹
  kcat/KM: 0.97 (μM^−1 · s^−1) × 10^−3
[3]
  Km: 105 µM
  kcat: 23.8 s⁻¹
  kcat/KM: 227 (μM^−1 · s^−1) × 10^−3
[4]; pre-incubation time 0 min
  pIC50: 5.72 ± 0.06
[4]; pre-incubation time 10 min
  pIC50: 6.41 ± 0.05
[4]; pre-incubation time 60 min
  pIC50: 7.16 ± 0.03
[1]; CI-20
  MIC of the β-lactam alone (−): 64 mg/L
[1]; CI-29
  MIC of the β-lactam alone (−): 32 mg/L
[1]; CI-31
  MIC of the β-lactam alone (−): 256 mg/L
[1]; K279a
  MIC of the β-lactam alone (−): 8 mg/L
[1]; K AMI 32
  MIC of the β-lactam alone (−): 4 mg/L
[1]; K CAZ 10
  MIC of the β-lactam alone (−): 64 mg/L
[1]; K MOX 8
  MIC of the β-lactam alone (−): 4 mg/L
